SMILES strings stand for the structures.

The Kd is a measure of binding affinity in units of concentration.

The first assay deals with ornithine decarboxylase (ODC). Put plainly: ODC assay: inhibition of TPA induction of ornithine decarboxylase activity. Type of assay: in vivo. Particulars: concentration of the test compound which causes 60% inhibition in the ODC assay. The text has this: A classic measure of retinoic acid activity involves measuring the effects of retinoic acid on ornithine decarboxylase. […] That reference discloses that ornithine decarboxylase (ODC) activity increased precedent to polyamine biosynthesis. It has been established elsewhere that increases in polyamine synthesis can be correlated or associated with cellular proliferation. Thus, if ODC activity could be inhibited, cell hyperproliferation could be modulated. Although all cases for ODC activity increases are unknown, it is known that 12-0-tetradecanoylphorbol-13-acetate (TPA) induces ODC activity. Retinoic acid inhibits this induction of ODC activity by TPA.
`CCOC(=O)c1ccc(/C=C/c2ccc3c(c2)C(C2SCCCS2)CCC3(C)C)cc1` (stereo not drawn) [Compound A23, Ethyl (E)-4-[-2-(5,6,7,8-tetrahydro-5,5-dimethyl-8-(1,3-dithian-2-yl)naphthalen-2-yl)ethenyl] benzoate] yielded an IC60 of 43.7 nmols. `CCON=C1CCC(C)(C)c2ccc(/C=C/c3ccc(C(=O)OCC)cc3)cc21` [Compound A5, Ethyl (E)-4-[2-(5,5-dimethyl-5,6,-dihydro-8(7H)-anti-(O-ethyl oxime)-naphthalen-2-yl)ethenyl]-benzoate] yielded an IC60 of 10.3 nmols.

As for `CCOC(=O)c1ccc(OC(=O)c2ccc3c(c2)C(OC2CCCCO2)CCC3(C)C)cc1` (single isomer, unassigned) [Compound E56a, Ethyl 4-[5,6,7,8-tetrahydro-8(R or S)-(2′(R or S)-tetrahydropyranoxy)-5,5-dimethyl-2-napthoyloxy]benzoate], the IC60 is 3.1 nmols. As for `CCOC(=O)c1ccc(/C=C/c2ccc3c(c2)C(=C(CC)CC)CCC3(C)C)cc1` [Compound A27, Ethyl (E)-4-[2-(7,8-dihydro-5,5-dimethyl-8(7H)-(pentyliden-3-yl)-naphthalen-2-yl)ethenyl]-benzoate], the IC60 is reported as 0.7 nmols. `CCOC(=O)c1ccc(N=Nc2ccc3c(c2)C(OCOC)CCC3(C)C)cc1` (racemic) [Compound D6, (+/−) Ethyl 4-[(5,5-dimethyl-8-(methoxymethyloxy)-5,6,7,8-tetrahydronaphthalen-2-yl)azo]benzoate]: the IC60 is recorded as 1.9 nmols. Same read-out and setting: the figure for `CCOC(=O)c1ccc(/N=N/c2ccc3c(c2)/C(=N/OC)CCC3(C)C)cc1` [Compound D3, Ethyl 4-[(8(7H)-anti-(O-methyl oxime)-5,5-dimethyl-5,6-dihydronaphthalen-2-yl)azo]benzoate] is 8.4 nmols; for `CCOC(=O)c1ccc(OC(=O)c2ccc3c(c2)C(=C(C)C)CCC3(C)C)cc1` [Compound E15, Ethyl 4-[{(5,5-dimethyl-8(7H-(propyliden-2-yl)-5.6-dihydronaphthalen-2-yl)}carbonyl}oxy]benzoate] it is 24.7 nmols.

Take `CCOC(=O)/C=C(C)/C=C/C=C(\C)c1ccc2c(c1)C(OS(=O)(=O)C(F)(F)F)=CCC2(C)C` [Compound C14, Ethyl 7-[4,4-dimethyl-3,4,-dihydronaphthalen-1-trifluoromethylsulfonyloxy-7-yl]-3,7-dimethyl-hept-2(E), 4(E), 6(E)trienoate]: the IC60 worked out at 4 nmols. Same read-out and setting: with `CCOC(=O)c1ccc(NC(=O)c2ccc3c(c2)C(C(C)(C)C)=CCC3(C)C)cc1` [Compound E79, Ethyl 4-[(5 .5-dimethyl-5,6-dihydro-8-(1,1-dimethylethyl)-2-naphthalenyl)carboxamido]-benzoate] the figure was 5.3 nmols; with `CCOC(=O)c1ccc(NC(=O)c2ccc3c(c2)C(OC2CCCCO2)CCC3(C)C)cc1` (single isomer, unassigned) [Compound E72b, Ethyl 4-[5,6,7,8-tetrahydro-8(R or S)-(2′(S or R)tetrahydropyranoxy)5,5-dimethylnaphthalene-2-yl)carboxamido]benzoate], 18 nmols. As to `CCOC(=O)/C=C(C)/C=C/C=C(\C)c1ccc2c(c1)C(c1cccs1)=CCC2(C)C` [Compound C15, Ethyl 7-[4,4-dimethyl-3,4,-dihydronaphthalen-1-(2-thienyl)-7-yl]-3,7-dimethyl-hept-2(E), 4(E), 6(E)trienoate], the IC60 came to 14.5 nmols. Same read-out and setting: the figure for `CCOC(=O)c1ccc(NC(=O)c2ccc3c(c2)C(=C(C)C)CCC3(C)C)cc1` [Compound E16] is 88.4 nmols. On the same count and under the same terms, the figure for `CCON=C1CCC(C)(C)c2ccc(/C(C)=C/C=C/C(C)=C/C(=O)OCC)cc21` [Compound C22b, Ethyl 7-[4,4-dimethyl-3,4-dihydro-1(2H)-anti-(O-ethyl oxime)-naphth-7-yl]3,7-dimethyl-hepta-2(E),4(E),6(E)-trienoate] is 10 nmols; for `CCOC(=O)c1ccc(OC(=O)c2ccc3c(c2)C(S(=O)(=O)c2ccccc2)=CCC3(C)C)cc1` [Compound E24, Ethyl 4-[{(5,5-dimethyl-8-(phenylsulfonyl)-5,6dihydronaphthalen-2-yl)carbonyl}oxy]benzoate] it is 8.3 nmols; for `CCOC(=O)c1ccc(/C=C/c2ccc3c(c2)C(=O)CCC3(C)C)cc1` [Compound A2, Ethyl (E)-4-[2-(5,6-dihydro-5,5-dimethyl-naphthalen-8(7H)-one-2-yl)ethenyl]-benzoate] it is 27 nmols.

Staying with this assay, now noted: concentration of the test compound which causes 80% inhibition in the ODC assay; cell marked (IC80).
For `CCOC(=O)c1ccc(/C=C/c2ccc3c(c2)C(Sc2ccccc2)=CCC3(C)C)cc1` [Compound A16, Ethyl (E)-4-[2-(5,6-dihydro-5,5-dimethyl-8-(phenylthio)-naphthalenyl)ethenyl] benzoate], the IC80 was 4.3 (IC80) nmols.

Another assay has as its target T1, RARγ (Homo sapiens, UniProt P13631).
T1 sequence (P13631 1-454): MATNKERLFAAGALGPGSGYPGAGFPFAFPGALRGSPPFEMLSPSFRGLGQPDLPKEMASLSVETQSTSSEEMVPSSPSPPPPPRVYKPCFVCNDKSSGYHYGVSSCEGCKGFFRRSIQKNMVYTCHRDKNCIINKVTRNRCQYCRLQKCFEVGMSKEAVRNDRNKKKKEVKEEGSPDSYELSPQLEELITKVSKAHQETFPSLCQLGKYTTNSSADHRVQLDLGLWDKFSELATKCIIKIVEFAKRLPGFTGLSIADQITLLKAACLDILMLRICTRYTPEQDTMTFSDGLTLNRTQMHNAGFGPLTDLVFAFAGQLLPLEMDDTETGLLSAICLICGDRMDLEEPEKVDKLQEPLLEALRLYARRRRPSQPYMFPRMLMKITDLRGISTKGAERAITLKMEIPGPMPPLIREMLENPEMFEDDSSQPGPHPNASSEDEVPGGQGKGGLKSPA
Nature of the assay: Ligand binding assay.
Conditions: not given
The text has this:
(§1) Other assays described below, measure the ability of the compounds of the present invention to bind to, and/or activate various retinoid receptor subtypes. When in these assays a compound binds to a given receptor subtype and activates the transcription of a reporter gene through that subtype, then the compound is considered an agonist of that receptor subtype. […] In the below described assays the ability of the compounds to bind to RARα, RARβ, RARγ, RXRα, RXRβ and RXRΓ receptors, and the ability or inability of the compounds to activate transcription of a reporter gene through these receptor subtypes can be tested.
(§2) A holoreceptor transactivation assay and a ligand binding assay which measure the antagonist/agonist like activity of the compounds of the invention, or their ability to bind to the several retinoid receptor subtypes, respectively, are described in published PCT Application No. WO WO93/11755 (particularly on pages 30-33 and 37-41) published on Jun. 24, 1993, the specification of which is also incorporated herein by reference. A description of the holoreceptor transactivation assay is also provided below.
(§3) CV1 cells (5,000 cells/well) were transfected with an RAR reporter plasmid MTV-TREp-LUC (50 ng) along with one of the RAR expression vectors (10 ng) in an automated 96-well format by the calcium phosphate procedure of Heyman et al. Cell 68, 397-406, (1992). For RXRα and RXRγ transactivation assays, an RXR-responsive reporter plasmid CRBPII-tk-LUC (50 ng) along with the appropriate RXR expression vectors (10 ng) was used substantially as described by Heyman et al. above, and Allegretto et al. J. Biol. Chem. 268, 26625-26633. For RXRβ transactivation assays, an RXR-responsive reporter plasmid CPRE-tk-LUC ([…]) along with RXRβ expression vector ([…]) was used as described in above. These reporters contain DRI elements from human CRBPII and certain DRI elements from promoter, respectively. (see Mangelsdorf et al. The Retinoids: Biology, Chemistry and Medicine, pp 319-349, Raven Press Ltd., New York and Heyman et al., cited above) (1, 8). A β-galactosidase (50 ng) expression vector was used as an internal control in the transfections to normalize for variations in transfection efficiency. The cells were transfected in triplicate for 6 hours, followed by incubation with retinoids for 36 hours, and the extracts were assayed for luciferase and β-galactosidase activities. The detailed experimental procedure for holoreceptor transactivations has been described in Heyman et al. above, and Allegretto et al. cited above. The results obtained in this assay are expressed in EC50 numbers, as they are also in the chimeric receptor transactivation assay. The Heyman et al. Cell 68, 397-406, Allegretto et al. J. Biol. Chem. 268, 26625-26633, and Mangelsdorf et al. The Retinoids: Biology, Chemistry and Medicine, pp 319-349, Raven Press Ltd., New York, are expressly incorporated herein by reference. The results of ligand binding assay are expressed in Kd numbers. (See Cheng et al. Biochemical Pharmacology Vol. 22 pp 3099-3108, expressly incorporated herein by reference.)
In turn, `CC(C)(C)C1=CCC(C)(C)c2ccc(C(=O)Nc3ccc(C(=O)O)cc3)cc21` [Compound E80, 4-[(5,5-dimethyl-5,6-dihydro-8-(1,1-dimethylethyl)-2-naphthalenyl)carboxamido]-benzoic Acid] registered a Kd of 901 nM.

On to `CO/N=C1\CCC(C)(C)c2ccc(N=Nc3ccc(C(=O)O)cc3)cc21` [Compound D4, 4-[(8(7H)-Anti-(O-methyl oxime)-5,5-dimethyl-5,6-dihydronaphthalen-2-yl)azo]benzoic Acid], for which binding was put at a Kd of 363 nM.

A further assay concerns the target T2, RARβ (Homo sapiens, UniProt P10826).
T2 sequence (P10826 1-455): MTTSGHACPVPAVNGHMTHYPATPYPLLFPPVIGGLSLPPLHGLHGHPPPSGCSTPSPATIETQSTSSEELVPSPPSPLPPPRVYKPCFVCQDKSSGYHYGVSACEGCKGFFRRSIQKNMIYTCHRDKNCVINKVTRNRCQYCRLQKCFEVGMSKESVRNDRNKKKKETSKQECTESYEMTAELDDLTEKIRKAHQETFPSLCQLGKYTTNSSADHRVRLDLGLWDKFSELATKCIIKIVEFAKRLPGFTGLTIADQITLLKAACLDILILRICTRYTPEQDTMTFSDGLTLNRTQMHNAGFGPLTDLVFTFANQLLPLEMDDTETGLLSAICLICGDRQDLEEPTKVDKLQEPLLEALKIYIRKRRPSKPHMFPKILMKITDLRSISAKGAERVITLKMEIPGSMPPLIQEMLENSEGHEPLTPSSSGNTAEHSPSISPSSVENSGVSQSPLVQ
Put plainly: Ligand binding assay.
Conditions: not given
From the text: as §1, §2, §3
Take `CC(C)(C)C1=CCC(C)(C)c2ccc(C(=O)Nc3ccc(C(=O)O)cc3)cc21` [Compound E80, 4-[(5,5-dimethyl-5,6-dihydro-8-(1,1-dimethylethyl)-2-naphthalenyl)carboxamido]-benzoic Acid]: binding was characterised by a dissociation constant (Kd) of 531 nM. Same read-out and setting: with `CO/N=C1\CCC(C)(C)c2ccc(N=Nc3ccc(C(=O)O)cc3)cc21` [Compound D4, 4-[(8(7H)-Anti-(O-methyl oxime)-5,5-dimethyl-5,6-dihydronaphthalen-2-yl)azo]benzoic Acid] the figure was 132 nM.

In the next assay the target is T3, RARα (Homo sapiens, UniProt P10276).
T3 sequence (P10276 1-462): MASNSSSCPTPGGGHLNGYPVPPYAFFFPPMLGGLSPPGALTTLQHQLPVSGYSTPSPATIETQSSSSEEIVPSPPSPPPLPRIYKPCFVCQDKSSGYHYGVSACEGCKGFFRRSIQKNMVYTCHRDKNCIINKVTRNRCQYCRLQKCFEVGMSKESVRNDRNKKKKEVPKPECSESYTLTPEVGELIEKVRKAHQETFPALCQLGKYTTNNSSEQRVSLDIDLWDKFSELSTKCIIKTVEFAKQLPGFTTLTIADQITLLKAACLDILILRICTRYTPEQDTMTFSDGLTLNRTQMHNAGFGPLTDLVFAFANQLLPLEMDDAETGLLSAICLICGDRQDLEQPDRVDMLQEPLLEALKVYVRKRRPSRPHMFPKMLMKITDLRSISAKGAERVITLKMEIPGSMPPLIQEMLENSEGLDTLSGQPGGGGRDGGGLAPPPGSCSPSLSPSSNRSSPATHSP
Nature of the assay: Ligand binding assay.
Conditions: not given
From the text: as §1, §2, §3
Turning to `CC(C)(C)C1=CCC(C)(C)c2ccc(C(=O)Nc3ccc(C(=O)O)cc3)cc21` [Compound E80, 4-[(5,5-dimethyl-5,6-dihydro-8-(1,1-dimethylethyl)-2-naphthalenyl)carboxamido]-benzoic Acid], the affinity, expressed as Kd, was 394 nM. This lies in the sub-micromolar range.

The values are drawn from US6465663B2, “O- or S-substituted tetrahydronaphthalene derivatives having retinoid and/or retinoid antagonist-like biological activity” (Allergan, Inc., priority 1996, dated 2002).
